Measured values: publication PMC4187893, “Biochemical and Antiparasitic Properties of Inhibitors of the Plasmodium falciparum Calcium-Dependent Protein Kinase PfCDPK1” (Antimicrobial Agents and Chemotherapy, 2014)

Legend:
PfCDPK1 = PfCDPK1 (Plasmodium falciparum, UniProt P62344); test: Thermal shift assay; type: binding; design: 50 nM full-length recombinant PfCDPK1 and 8 μM MTIP in assay buffer 1; GST (from vector pGEX6P1) (N, cleaved yes); made in house; host or cells: Escherichia coli BL21 Gold; conditions: 10 μM compound, relative to DMSO controls
Experimental: Purified recombinant PfCDPK1 was diluted to 1 μM in 10 mM HEPES buffer (pH 7.5) containing 150 mM NaCl, 1 mM Ca^2+, and 1/1,000 SYPRO orange dye (Invitrogen). Test compounds were prediluted to 400 μM in 40% (vol/vol) DMSO in water, and 1 μl of diluted compound was added to 39 μl of enzyme/dye mix in white 96-well quantitative PCR plates (Thermo Scientific) to give a final compound concentration of 10 μM. Reference thermal melting temperatures (Tms) were obtained in parallel by the addition of 1 μl of 40% (vol/vol) DMSO to 39 μl of diluted PfCDPK1. The plates were sealed with transparent adhesive covers (Bio-Rad) and subjected to a temperature gradient from […] at a rate of 1 K/min using a quantitative PCR machine (MX3005P; Stratagene). Fluorescence data were acquired at 1-min intervals using the 6-carboxyfluorescein (FAM)/5-carboxy-X-rhodamine (ROX) filter set (λex = 492 nm; λem = 610 nm), and the raw data were exported to Excel (Microsoft) for analysis. Data were processed to identify the fluorescence maxima and minima, and the midpoints of melting curves were determined by fitting to the Boltzmann equation using XL-fit software (IDBS). Results were expressed as ΔTm values relative to DMSO controls where ΔTm = Tm in the presence of inhibitor − Tm of the DMSO controls.

[1] = design: method as in PMID 24689770; conditions: cited from earlier work
[2] = design: method as in PMID 24689770; conditions: cited from earlier work; remark: listed apart in the source
PbCDPK1 = PbCDPK1 (Plasmodium berghei, UniProt A0A509AHB6); test: Rh-ParM ADP sensor IC50 assay, PbCDPK1; conditions: read-out: IC50 PbCDPK1; Rh-ParM, absence of MTIP; mean (SD), n = 3
PvCDPK1 = PvCDPK1 (Plasmodium vivax, UniProt A5KBU9); test: Rh-ParM ADP sensor IC50 assay, PvCDPK1; conditions: read-out: IC50 PvCDPK1; Rh-ParM, absence of MTIP; mean (SD), n = 3
P. berghei = system: P. berghei; design: method as in PMID 24689770; conditions: mice, 50 mg/kg po, groups of three mice; mean (SD); cited from earlier work
P. falciparum 3D7 = test: FACS assay for parasite growth; conditions: read-out: Parasite growth inhibition EC50; FACS; mean (SD), n = 3

Chain of PvCDPK1 (A5KBU9 entry or part of it): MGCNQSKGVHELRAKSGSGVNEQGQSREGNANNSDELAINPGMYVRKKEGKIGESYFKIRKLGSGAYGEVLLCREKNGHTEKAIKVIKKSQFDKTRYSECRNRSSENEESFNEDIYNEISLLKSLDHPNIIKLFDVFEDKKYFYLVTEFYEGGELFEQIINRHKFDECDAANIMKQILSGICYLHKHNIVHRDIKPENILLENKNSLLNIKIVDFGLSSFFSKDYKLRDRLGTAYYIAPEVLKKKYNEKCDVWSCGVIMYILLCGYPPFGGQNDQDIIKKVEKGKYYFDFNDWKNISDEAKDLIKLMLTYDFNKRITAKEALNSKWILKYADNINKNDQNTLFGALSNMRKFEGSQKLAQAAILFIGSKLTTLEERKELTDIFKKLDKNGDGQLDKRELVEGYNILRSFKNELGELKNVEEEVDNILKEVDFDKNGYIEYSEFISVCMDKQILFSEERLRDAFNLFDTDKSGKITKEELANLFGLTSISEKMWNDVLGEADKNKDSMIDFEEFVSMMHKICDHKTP
Chain of PbCDPK1 (A0A509AHB6 whole entry): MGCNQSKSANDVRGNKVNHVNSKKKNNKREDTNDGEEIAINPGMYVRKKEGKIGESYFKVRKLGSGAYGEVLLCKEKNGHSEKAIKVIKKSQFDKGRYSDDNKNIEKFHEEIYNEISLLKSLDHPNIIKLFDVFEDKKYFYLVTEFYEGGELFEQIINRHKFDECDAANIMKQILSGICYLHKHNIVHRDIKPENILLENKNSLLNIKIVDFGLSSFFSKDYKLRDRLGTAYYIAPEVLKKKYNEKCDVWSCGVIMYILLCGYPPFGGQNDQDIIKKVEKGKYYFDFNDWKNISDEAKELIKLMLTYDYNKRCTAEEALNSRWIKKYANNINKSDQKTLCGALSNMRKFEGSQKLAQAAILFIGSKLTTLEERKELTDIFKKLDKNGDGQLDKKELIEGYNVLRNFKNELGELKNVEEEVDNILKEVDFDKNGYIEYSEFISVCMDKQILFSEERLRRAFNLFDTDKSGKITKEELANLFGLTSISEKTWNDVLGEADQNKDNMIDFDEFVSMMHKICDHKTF
Chain of PfCDPK1 (P62344 whole entry): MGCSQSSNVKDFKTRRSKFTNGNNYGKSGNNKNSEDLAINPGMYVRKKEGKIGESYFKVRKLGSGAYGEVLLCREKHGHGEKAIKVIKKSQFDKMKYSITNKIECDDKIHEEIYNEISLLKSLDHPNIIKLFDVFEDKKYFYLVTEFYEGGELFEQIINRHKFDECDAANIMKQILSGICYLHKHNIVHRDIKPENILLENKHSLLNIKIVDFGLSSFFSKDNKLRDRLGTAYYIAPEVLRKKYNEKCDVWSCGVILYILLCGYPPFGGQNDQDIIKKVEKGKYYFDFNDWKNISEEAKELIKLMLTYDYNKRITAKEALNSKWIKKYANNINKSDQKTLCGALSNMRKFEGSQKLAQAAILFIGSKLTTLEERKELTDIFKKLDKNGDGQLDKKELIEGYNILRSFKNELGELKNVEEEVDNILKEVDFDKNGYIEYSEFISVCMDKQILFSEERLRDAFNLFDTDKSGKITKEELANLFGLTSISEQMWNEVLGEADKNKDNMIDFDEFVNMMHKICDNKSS

SMILES	ΔTm PfCDPK1 (PfCDPK1) [K]	mlogD [1]	PAMPA Papp [2] [×10⁻⁶ cm/s]	IC50 (PbCDPK1) [µM]	IC50 (PvCDPK1) [µM]	% reduction in parasitemia in vivo (po) (P. berghei)	EC50 (P. falciparum 3D7) [µM]
Cc1ccc(F)c(Nc2ccc(-c3cnc4ccc(NC5CCC(N)CC5)nn34)cc2)n1 (stereo not drawn) [Compound 7]	23	2.2	1.8	< 0.01	< 0.01	–	–
CC(C)CCNc1ccc(-c2cnc3ccc(NC4CCN(C)CC4)nn23)cn1 [Compound 1]	–	3.4	–	–	< 0.01	46 (4) %	0.439
